# Experimental data as given in patent US11008622B2, “Biomarker for predicting sensitivity to EGFR-targeting agent, and use thereof” (THE ASAN FOUNDATION, priority 2014, dated 2021).
# Columns and labels:
# EGFR = EGFR phosphorylation by western blot after RON inhibition by siRNA; type: cell-based, human
# Experimental: In order to perform the western blot, a protein separated from each cell was separated through SDS-PAGE and transferred to polyscreen membranes (New England Nuclear, Boston, Mass., USA), reacted for 12 hours at 4° C. by using various antibodies (anti-phospho RON (MyBioSource, San Diego, Calif., USA), anti-phospho Tyrosine, anti-EGFR, anti-phospho EGFR (Cell signaling Technology, Beverly, Mass., USA), anti-RON, and anti-r-tubulin (Santa Cruz Biotechnology), and then washed with a 1×TBS-T buffer solution for 10 minutes three times. A suitable anti-rabbit-HRP or anti-mouse-HRP secondary antibody reacted for 2 hours at room temperature and was washed with the 1×TB S-T buffer solution for 10 minutes three times to verify the expression of the protein by using an ECL solution (Amersham, Buckinghamshire, UK).
# The inventors verified the phosphorylation induction of the EGFR by performing the western blot, after artificially suppressing the RON by using a siRNA technique in the KM12C and HT29 colon cancer cell lines in which the RON was expressed and activated, in order to verify the change in activity of the EGFR protein by the activation of the RON protein. […]
# FZD4 and GPR101 genes = assay: Real-time PCR of EGFR transactivation-related genes after RON inhibition; type: cell-based, human; conditions: KM12C, RON siRNA 48 hours; FIG. 1E
# Experimental: In order to perform the RT-PCR, Colo320HSR colon cancer cell line in which the RON was non-expressed was transfected with construct expressing the RONΔ160 as the RON active type form for 48 hours and KM12C colon cancer cell line in which the RON was activated was transfected with the RON siRNA for 48 hours. The RNA was extracted by using trizol (Cat.#15596-026, Life Technologies™), respectively. The extracted RNA was synthesized to cDNA by using a RT-PCR Kit (AccuPower RT PreMix, Bioneer). The difference in expression of the corresponding gene was verified by PCR (AccuPower PCRPreMix, Bioneer) by using the synthesized cDNA and a gene-specific primer and quantified by using a real-time PCR (LightCycler 480 SYBR Green, Roche).
# The inventors analyzed the expression of the genes Adam11, Adam32, FZD4, GPER, and GPR101 associated with the EGFR transactivation with real-time PCR after artificially suppressing the RON activity by using an siRNA technique in the KM12C colon cancer cell line in which the RON was activated, in order to analyze the change aspect of the expression of the EGFR transactivation-related genes according to the RON inhibition.
substance,measurement,setting,value
"5′-ACUUUGUAGAGGAGUUUGAUU-3′ (listed as RNA, chemistry not given here) [RON siRNA]",activity of the EGFR (phosphorylation),"EGFR; KM12C and HT29 colon cancer cell lines, FIG. 2B",decreased
same,phosphorylation of the EGFR induced by the EGF,"EGFR; KM12C, by EGF ligand treating time, FIG. 2C",decreased
same,FZD4 gene expression,FZD4 and GPR101 genes,significantly reduced
same,GPR101 gene expression,FZD4 and GPR101 genes,significantly reduced
